Measurements reported in patent US10570129B2 (Zoetis Services LLC, priority 2015, dated 2020).

Experiments:
Haemonchus contortus L3 = test: microbe, parasite or virus in culture; assay type: cell-based; details: Haemonchus contortus, 96 h, read-out: HcL3 Minimal Effective Concentration (MEC)
[1] = system: Trichostrongylus colubriformis; test: Jird efficacy model; assay type: in vivo; details: Trichostrongylus colubriformis, sc, 96 h, read-out: Jird % (percentage efficacy)
D. immitis microfilariae = test: Dirofilaria immitis, microfilariae (DiMF) in vitro motility assay; assay type: cell-based; details: Dirofilaria immitis, 72 h, read-out: DiMF minimally effective dose (MEC)

| SMILES | minimal effective concentration (Haemonchus contortus L3) [µM] | inhibition in vivo at 10 mg/kg [1] [%] | minimal effective concentration (D. immitis microfilariae) [µM] |
| --- | --- | --- | --- |
| N#Cc1ccc2c3c(n(C(=O)NCc4ccnc(Cl)c4)c2c1)CCN(C/C=C/c1c(F)cc(F)cc1F)C3 [Example 9, (E)-N-((2-chloropyridin-4-yl)methyl)-7-cyano-2-(3-(2,4,6-trifluorophenyl)allyl)-1,2,3,4-tetrahydro-5H-pyrido[4,3-b]indole-5-carboxamide] | 7.6 | 99 | 5.7 |
| O=C(NCc1ccnc(F)c1)n1c2c(c3ccc(OC(F)(F)F)cc31)CN(C/C=C/c1ccc(F)cc1F)CC2 [Example 374, (E)-2-(3-(2,4-difluorophenyl)allyl)-N-((2-fluoropyridin-4-yl)methyl)-7-(trifluoromethoxy)-1,2,3,4-tetrahydro-5H-pyrido[4,3-b]indole-5-carboxamide] | 5.7 | 72 | 5.7 |
| O=C(NCc1cnc(Cl)s1)n1c2c(c3cc4c(cc31)COC4)CN(C/C=C/c1ccc(Cl)cc1)CC2 [Example 489, (E)-8-(3-(4-chlorophenyl)allyl)-N-((2-chlorothiazol-5-yl)methyl)-1,3,6,7,8,9-hexahydro-5H-furo[3,4-f]pyrido[4,3-b]indole-5-carboxamide] | 3.3 | 100 | 3.3 |
| O=C(NCc1ccnc(F)c1)n1c2c(c3ccc(Cl)cc31)CN(C/C=C/c1ccc(Cl)cc1)CC2 [Example 229, (E)-7-chloro-2-(3-(4-chlorophenyl)allyl)-N-((2-fluoropyridin-4-yl)methyl)-1,2,3,4-tetrahydro-5H-pyrido[4,3-b]indole-5-carboxamide] | 3.3 | 100 | 10 |
| N#Cc1ccc2c3c(n(C(=O)NCc4ccnc(Cl)c4)c2c1)CCN(C/C=C/c1cc(F)c(F)c(F)c1)C3 [Example 29, (E)-N-((2-chloropyridin-4-yl)methyl)-7-cyano-2-(3-(3,4,5-trifluorophenyl)allyl)-1,2,3,4-tetrahydro-5H-pyrido[4,3-b]indole-5-carboxamide] | 0.7 | 99 | 1.8 |
| O=C(NCc1ccnc(Cl)c1)n1c2c(c3cc(F)c(Cl)cc31)CN(C/C=C/c1ccc(F)cc1)CC2 [Example 306, (E)-7-chloro-N-((2-chloropyridin-4-yl)methyl)-8-fluoro-2-(3-(4-fluorophenyl)allyl)-1,2,3,4-tetrahydro-5H-pyrido[4,3-b]indole-5-carboxamide] | 0.5 | 98 | 12.7 |
| N#Cc1ccc(/C=C/CN2CCc3c(c4cc(Br)ccc4n3C(=O)NCc3ccnc(Cl)c3)C2)cc1 [Example 184, (E)-8-bromo-N-((2-chloropyridin-4-yl)methyl)-2-(3-(4-cyanophenyl)allyl)-1,2,3,4-tetrahydro-5H-pyrido[4,3-b]indole-5-carboxamide] | 1 | 100 | 57.4 |
| N#Cc1ccc2c(c1)c1c(n2C(=O)NCc2ccnc(F)c2)CCN(C/C=C/c2ccc(Br)cc2F)C1 [Example 102, (E)-2-(3-(4-bromo-2-fluorophenyl)allyl)-8-cyano-N-((2-fluoropyridin-4-yl)methyl)-1,2,3,4-tetrahydro-5H-pyrido[4,3-b]indole-5-carboxamide] | 0.3 | 97 | 3.3 |
| N#Cc1ccc(/C=C/CN2CCc3c(c4cc(F)c(OC(F)(F)F)cc4n3C(=O)NCc3ccnc(Cl)c3)C2)cc1 [Example 470, (E)-N-((2-chloropyridin-4-yl)methyl)-2-(3-(4-cyanophenyl)allyl)-8-fluoro-7-(trifluoromethoxy)-1,2,3,4-tetrahydro-5H-pyrido[4,3-b]indole-5-carboxamide] | 1 | 100 | 13.5 |
| O=C(NCc1ccnc(F)c1)n1c2c(c3cc(C(F)(F)F)ccc31)CN(C/C=C/c1ccc(F)c(F)c1)CC2 [Example 419, (E)-2-(3-(3,4-difluorophenyl)allyl)-N-((2-fluoropyridin-4-yl)methyl)-8-(trifluoromethyl)-1,2,3,4-tetrahydro-5H-pyrido[4,3-b]indole-5-carboxamide] | 1 | 100 | 10 |
| O=C(NCc1ccnc(Cl)c1)n1c2c(c3cc(N4CCOCC4)ccc31)CN(C/C=C/c1ccc(Cl)c(F)c1)CC2 [Example 504, (E)-2-(3-(4-chloro-3-fluorophenyl)allyl)-N-((2-chloropyridin-4-yl)methyl)-8-morpholino-1,2,3,4-tetrahydro-5H-pyrido[4,3-b]indole-5-carboxamide] | 5.7 | 100 | 10 |
| O=C(NCc1ccnc(Cl)c1)n1c2c(c3cc(OC(F)(F)F)ccc31)CN(C/C=C/c1ccc(Cl)cc1)CC2 [Example 391, (E)-2-(3-(4-chlorophenyl)allyl)-N-((2-chloropyridin-4-yl)methyl)-8-(trifluoromethoxy)-1,2,3,4-tetrahydro-5H-pyrido[4,3-b]indole-5-carboxamide] | 1 | 100 | 32.1 |
| O=C(NCc1ccnc(F)c1)n1c2c(c3ccc(OC(F)(F)F)cc31)CN(C/C=C/c1cc(F)c(F)c(F)c1)CC2 [Example 377, (E)-N-((2-fluoropyridin-4-yl)methyl)-7-(trifluoromethoxy)-2-(3-(3,4,5-trifluorophenyl)allyl)-1,2,3,4-tetrahydro-5H-pyrido[4,3-b]indole-5-carboxamide] | 0.3 | 99 | 5.7 |
| N#Cc1ccc2c3c(n(C(=O)NCc4ccnc(Cl)c4)c2c1)CCN(C/C=C/c1cc(F)cc(F)c1)C3 [Example 30, (E)-N-((2-chloropyridin-4-yl)methyl)-7-cyano-2-(3-(3,5-difluorophenyl)allyl)-1,2,3,4-tetrahydro-5H-pyrido[4,3-b]indole-5-carboxamide] | 0.5 | 100 | 10 |
| O=C(NCc1ccnc(Cl)c1)n1c2c(c3ccc(OC(F)(F)F)cc31)CN(C/C=C/c1ccc(F)cc1)CC2 [Example 356, (E)-N-((2-chloropyridin-4-yl)methyl)-2-(3-(4-fluorophenyl)allyl)-7-(trifluoromethoxy)-1,2,3,4-tetrahydro-5H-pyrido[4,3-b]indole-5-carboxamide] | 0.6 | 100 | 3.8 |
| O=C(NCc1ccnc(Cl)c1)n1c2c(c3ccc(C(F)(F)F)cc31)CN(C/C=C/c1ccc(Cl)c(F)c1)CC2 [Example 152, (E)-2-(3-(4-chloro-3-fluorophenyl)allyl)-N-((2-chloropyridin-4-yl)methyl)-7-(trifluoromethyl)-1,2,3,4-tetrahydro-5H-pyrido[4,3-b]indole-5-carboxamide] | 1 | 99 | 3.3 |
| N#Cc1ccc2c(c1)c1c(n2C(=O)NCc2ccnc(C(F)(F)F)c2)CCN(C/C=C/c2ccc(Cl)cc2F)C1 [Example 128, (E)-2-(3-(4-chloro-2-fluorophenyl)allyl)-8-cyano-N-((2-(trifluoromethyl)pyridin-4-yl)methyl)-1,2,3,4-tetrahydro-5H-pyrido[4,3-b]indole-5-carboxamide] | 0.1 | 100 | 0.7 |
| N#Cc1ccc2c3c(n(C(=O)NCc4ccnc(Cl)c4)c2c1)CCN(C/C=C/c1ccc(Cl)c(Cl)c1)C3 [Example 35, (E)-N-((2-chloropyridin-4-yl)methyl)-7-cyano-2-(3-(3,4-dichlorophenyl)allyl)-1,2,3,4-tetrahydro-5H-pyrido[4,3-b]indole-5-carboxamide] | 3.3 | 100 | 33 |
| O=C(NCc1ccnc(Cl)c1)n1c2c(c3cc(Cl)ccc31)CN(C/C=C/c1ccc(F)c(F)c1)CC2 [Example 240, (E)-8-chloro-N-((2-chloropyridin-4-yl)methyl)-2-(3-(3,4-difluorophenyl)allyl)-1,2,3,4-tetrahydro-5H-pyrido[4,3-b]indole-5-carboxamide] | 0.2 | 98 | 3.3 |
| N#Cc1ccc2c3c(n(C(=O)NCc4ccnc(Cl)c4)c2c1)CCN(C/C=C/c1ccc(F)c(F)c1F)C3 [Example 13, (E)-N-((2-chloropyridin-4-yl)methyl)-7-cyano-2-(3-(2,3,4-trifluorophenyl)allyl)-1,2,3,4-tetrahydro-5H-pyrido[4,3-b]indole-5-carboxamide] | 1.8 | 100 | 10 |
| O=C(NCc1ccnc(F)c1)n1c2c(c3cc(C(F)(F)F)ccc31)CN(C/C=C/c1ccc(F)c(Cl)c1)CC2 [Example 418, (E)-2-(3-(3-chloro-4-fluorophenyl)allyl)-N-((2-fluoropyridin-4-yl)methyl)-8-(trifluoromethyl)-1,2,3,4-tetrahydro-5H-pyrido[4,3-b]indole-5-carboxamide] | 3.3 | 95 | 18.2 |
| O=C(NCc1ccnc(F)c1)n1c2c(c3ccc(Cl)cc31)CN(C/C=C/c1ccc(F)c(F)c1)CC2 [Example 228, (E)-7-chloro-2-(3-(3,4-difluorophenyl)allyl)-N-((2-fluoropyridin-4-yl)methyl)-1,2,3,4-tetrahydro-5H-pyrido[4,3-b]indole-5-carboxamide] | 1.8 | 98 | 3.3 |
